Measured values as given in US20100261711A1, “SELECTIVE ANTICONVULSANT AGENTS AND THEIR USES” (WiSys Technology Foundation, priority 2009, published 2010).
Marks after values point to notes of the source that are not given here.

Columns and labels:
[1] = target: T1, GABAA/α1 (α1β3γ2 GABAA receptors) (Homo sapiens, UniProt P14867+P18507); assay: Competitive binding assay, [3H]flunitrazepam; conditions: Binding Affinity at GABAA/α1, αxβ3γ2, [3H]flunitrazepam competition
T1 construct: expressed in transfected cells
Method in brief: (§1)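 Bound ligand was collected on 0.3% polyethyleneimine-pretreated GF/C filters with three ice-cold washes and quantified by liquid scintillation counting; membrane protein was determined against a BSA standard.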

[2] = target: T2, GABAA/α2 (α2β3γ2 GABAA receptors) (Homo sapiens, UniProt P18507+P47869); assay: Competitive binding assay, [3H]flunitrazepam; conditions: Binding Affinity at GABAA/α2, αxβ3γ2, [3H]flunitrazepam competition
T2 construct: expressed in transfected cells
Method in brief: as §1

[3] = target: T3, GABAA/α5 (α5β3γ2 GABAA receptors) (Homo sapiens, UniProt P18507+P31644); assay: Competitive binding assay, [3H]flunitrazepam; conditions: Binding Affinity at GABAA/α5, αxβ3γ2, [3H]flunitrazepam competition
T3 construct: expressed in transfected cells
Method in brief: as §1

[4] = test system: MES-induced seizures; assay: Maximal electroshock test (MES), mice; format: in vivo
[5] = test system: Metrazol-induced clonic seizures; assay: Subcutaneous Metrazol test (scMet), mice; format: in vivo
[6] = test system: minimal muscular or neurological impairment; assay: Toxicity (TOX), rotorod procedure, mice; format: in vivo
[7] = test system: MES-induced seizures; assay: Maximal electroshock test (MES), rats; format: in vivo; conditions: for MES, animals protected/tested: 30 mg/kg
[8] = test system: minimal motor deficit (ataxia, abnormal gait); assay: Toxicity (TOX), minimal motor deficit, rats; format: in vivo; conditions: for TOX (Rotorod Test), animals toxic/tested: Rat IP, 100 mg/kg
[9] = test system: 6 Hz psychomotor seizure; assay: Minimal clonic seizure (6 Hz) test; format: in vivo; conditions: Mice IP; for 6 Hz, animals protected/tested: 100 m/k, 44 mA
Method in brief: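 Mice dosed ip with test compound before 6 Hz corneal-type electrical stimulation lasting 3 s. Protection scored as absence of minimal clonic phase and stereotyped automatistic behaviour seen in untreated animals.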

[10] = Mice, 50 mg/kg PO (Mice IP), 0.5 hr
[11] = Mice, 50 mg/kg PO (Mice IP), 4.0 hr

Compound: C#Cc1ccc2c(c1)C(c1ccccc1F)=NCc1c(C(=O)OCC)ncn1-2 [JY-XHe-053 (15), Ethyl-8-acetyleno-6-(2′-fluorophenyl)-4H-benzo[f]imidazo[1,5-a][1,4]diazepine-3-carboxylate]
- Ki [1]: 22 nM
- Ki [2]: 12.3 nM
- Ki [3]: 0.671 nM
- MES, animals protected/tested ([4]; Mice IP, 100 mg/kg, 0.5 hr): 0/3
- MES, animals protected/tested ([4]; Mice IP, 100 mg/kg, 4.0 hr): 0/3
- MES, animals protected/tested [4, 10]: 1/4
- MES, animals protected/tested [4, 11]: 0/4
- ED50 ([4]; Mus musculus, Mice IP): > 200 mg/kg
- scMet, animals protected/tested ([5]; Mice IP, 100 mg/kg, 0.5 hr): 5/5
- scMet, animals protected/tested ([5]; Mice IP, 100 mg/kg, 4.0 hr): 0/1
- scMet, animals protected/tested [5, 10]: 3/4
- scMet, animals protected/tested [5, 11]: 4/4
- ED50 ([5]; Mus musculus, Mice IP): 8.87 mg/kg
- TOX (Rotorod Test), animals toxic/tested ([6]; Mice IP, 100 mg/kg, 0.5 hr): 6/8
- TOX (Rotorod Test), animals toxic/tested ([6]; Mice IP, 100 mg/kg, 4.0 hr): 0/4
- TD50 TOX ([6]; Mice IP, rotorod): > 400 mg/kg
- TOX (Rotorod Test), animals toxic/tested [6, 10]: 0/4
- TOX (Rotorod Test), animals toxic/tested [6, 11]: 0/4
- ED50 ([7]; Rat IP): > 30 mg/kg
- ED50 ([7]; Rat PO): > 250 mg/kg
- MES, animals protected/tested ([7]; Rat PO, 0.5 h): 0/4
- MES, animals protected/tested ([7]; Rat PO, 1.0 h): 0/4
- MES, animals protected/tested ([7]; Rat PO, 2.0 h): 0/4
- MES, animals protected/tested ([7]; Rat PO, 4.0 h): 1/4
- MES, animals protected/tested ([7]; Rat PO, 6.0 h): 0/4
- TOX (Rotorod Test), animals toxic/tested ([8]; 0.5 hr): 0/4
- TOX (Rotorod Test), animals toxic/tested ([8]; 4.0 hr): 0/4
- Tox, animals toxic/tested ([8]; Rat PO, 40 mg/kg, 4.0 h): 0/4^e
- Tox, animals toxic/tested ([8]; Rat PO, 40 mg/kg, 6.0 h): 0/4^e
- Tox, animals toxic/tested ([8]; Rat PO, 50 mg/kg, 0.5 h): 0/4
- Tox, animals toxic/tested ([8]; Rat PO, 50 mg/kg, 1.0 h): 0/4
- Tox, animals toxic/tested ([8]; Rat PO, 50 mg/kg, 2.0 h): 0/4
- Tox, animals toxic/tested ([8]; Rat PO, 50 mg/kg, 4.0 h): 0/4
- Tox, animals toxic/tested ([8]; Rat PO, 50 mg/kg, […]): 0/4
- TD50 TOX ([8]; Rat PO, abnormal gait): >500 mg/kg
- motor impairment / sedative or locomotor effects ([8]; rats, oral administration, up to 500 mg/kg): No motor impairment
- 6 Hz, animals protected/tested ([9]; 0.5 hr): 4/4
- 6 Hz, animals protected/tested ([9]; 1.0 hr): 2/4
- 6 Hz, animals protected/tested ([9]; 2.0 hr): 2/4
- 6 Hz, animals protected/tested ([9]; 4 hr): 0/4
- 6 Hz, animals protected/tested ([9]; […]): 2/4
- ED50 ([9]; Mus musculus, ip, 32 mA, read-out: ED50 32 mA (6 Hz test)): 39.2 mg/kg
